The structures appear in SMILES notation.

Data set [1] concerns the target T1, human serum albumin (HSA) (Homo sapiens, UniProt P02768).
T1 construct: purchased Sigma-Aldrich
As to the kind of experiment: Differential pulse voltammetry (DPV), interaction with HSA. Format: binding. As to conditions: compound 0.05 mmol/L, PBS pH 7.4, HSA 0.05–10 μmol/L; for fraction unbound at 0.05 mmol/L: human, human serum albumin solution in PBS, read-out: % Bound Drug (converted). As to the method: The electrochemical oxidation of the tested compounds at a concentration of 0.05 mmol/L in PBS buffer pH 7.4 was investigated by differential pulse voltammetry (DPV). […] For all tested compounds, a preliminary study of the interaction with HSA was performed at a concentration of 0.05 mmol/L and different HSA concentrations (0.05–10 μmol/L) using DPV. […] It has been reported that the shift in the potential of an electroactive ligand is a suitable criterion to determine the mode of the macromolecule–ligand interaction. In this context, a positive shift in potential is an indication of hydrophobic interaction of investigated compounds with HSA [34]. The decrease in peak current could be due to the formation of a non-electroactive supramolecular compound by the drug–protein interaction, which reduces the concentration of free drug.
The voltammetric measurements were carried out with the µAutolab analyzer (EcoChemie, Utrecht, The Netherlands). A three-electrode system with a GCE working electrode, an Ag/AgCl reference electrode, and a Pt-auxiliary electrode was used. Before each experiment, the GCE was manually polished with an aqueous slurry of Al2O3 powder (particle size of 0.05 μm) on a smooth polishing pad, sonicated in deionized water, and then treated in absolute ethanol. Phosphate buffer saline (PBS) pH 7.4 was used as the supporting electrolyte. The experiments were carried out with deaerated PBS buffer. A stock solution of HSA in PBS at a concentration of 0.1 mmol/L was used. […] The interaction between tested compounds and HSA was examined in PBS solution, using solutions of tested compounds in a concentration of 0.05 mmol/L and HSA solution with a concentration in the range of 0.05–10 μmol/L.
The percentage of free compound (Equation (4)) was calculated from the ratio of the current intensity (IINT) for a given compound concentration (0.05 mmol/L) in the presence of albumin to the signal obtained at the same compound concentration only in the presence of the supporting electrolyte (PBS buffer) (IC).

Data set [2] addresses T1, human serum albumin (HSA). The data set is classed as binding. As to conditions: CHIRALPAK HSA column, ammonium acetate buffer pH 7.0/acetonitrile 85:15, 25 °C. As to the method:
Recently, interactions of many newly synthesized structurally diverse compounds with HSA were successfully studied using this technique. The degree of binding of the tested compounds to HSA was evaluated based on their retention behavior on the stationary phase modified with HSA. The logarithmic values of retention factors (logk) were used to evaluate indirectly and compare the drug–HSA interaction.
HPAC analysis was performed on an Agilent 1200 Series chromatograph (Agilent Technologies, Santa Clara, CA, USA). […] The mobile phase consisted of ammonium acetate buffer (pH 7.0; 0.01 M) and acetonitrile (85:15, v/v). The flow rate was 0.6 mL/min, the temperature was set to 25 °C, and the detection of tested compounds was carried out at 283 nm. Tested compounds were dissolved in DMSO (at a concentration of 1 mg/mL), further diluted with the mobile phase to a final concentration of 0.05 mg/mL, and analyzed in triplicate. The HPAC conditions were selected not only with the aim of achieving satisfactory retention characteristics of all synthesized compounds but also taking into account recommendations of a column manufacturer. Retention factors were calculated using Equation (1), where t0 (column dead time) was the retention time of DMSO at 220 nm.

Another data set has as its system zebrafish embryos. More on the design: method as in PMID 38931946. The settings on record: at therapeutic doses; cited from earlier work.

T1 sequence (P02768 25-609): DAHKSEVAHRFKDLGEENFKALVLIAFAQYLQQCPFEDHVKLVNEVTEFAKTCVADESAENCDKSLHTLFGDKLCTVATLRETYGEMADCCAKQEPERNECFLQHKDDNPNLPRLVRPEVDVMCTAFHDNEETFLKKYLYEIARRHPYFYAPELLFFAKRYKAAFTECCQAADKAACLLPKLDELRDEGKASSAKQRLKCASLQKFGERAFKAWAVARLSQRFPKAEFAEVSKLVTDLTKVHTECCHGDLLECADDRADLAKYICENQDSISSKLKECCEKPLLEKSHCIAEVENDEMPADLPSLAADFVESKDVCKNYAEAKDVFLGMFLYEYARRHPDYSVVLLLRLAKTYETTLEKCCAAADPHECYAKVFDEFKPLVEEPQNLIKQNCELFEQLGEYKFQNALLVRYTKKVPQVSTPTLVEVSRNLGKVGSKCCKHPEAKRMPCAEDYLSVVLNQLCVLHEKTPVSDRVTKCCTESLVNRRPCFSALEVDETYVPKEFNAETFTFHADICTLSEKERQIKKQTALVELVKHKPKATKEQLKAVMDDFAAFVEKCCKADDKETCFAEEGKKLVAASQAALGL

`CC(=O)N(O)C(C)c1ccc(CC(C)C)cc1` (stereo not drawn) [Compound 11]: in data set [1], the “ΔE, DPV peak potential shift after interaction with HSA” value (shortened to “ΔE, DPV peak potential shift”) stood at 7 mV and the fraction unbound at 0.05 mmol/L was 0.292.
Take `COc1ccc2c(c1)c(CNC(=O)NO)c(C)n2C(=O)c1ccc(Cl)cc1` [Compound 1]: in data set [1], the “ΔE, DPV peak potential shift” value was 34 mV and the fraction unbound at 0.05 mmol/L is 0.267.
In the case of `COc1ccc2cc(C(C)N(O)C(C)=O)ccc2c1` (stereo not drawn) [Compound 12], the “Retention Factors (logk)” value in data set [2] amounted to 2.03 ± 0.02. Also, in data set [1], the “ΔE, DPV peak potential shift” value came out at 13 mV and the fraction unbound at 0.05 mmol/L is 0.296.
With `CC(NC(=O)NO)c1ccc(-c2ccccc2)c(F)c1` (stereo not drawn) [Compound 2], in data set [1], the “ΔE, DPV peak potential shift” value is 30 mV and the fraction unbound at 0.05 mmol/L was 0.198.
Take `O=C(NO)NCc1ccccc1Nc1c(Cl)cccc1Cl` [Compound 3]: in data set [1], the “ΔE, DPV peak potential shift” value stood at 29 mV and the fraction unbound at 0.05 mmol/L was 0.198. Besides, the “toxic effects on zebrafish embryos” value in the data set with zebrafish embryos is reported as “did not show toxic effects”.

Source of the values: article PMC11510591, “In Vitro Evaluation of Pharmacokinetic Properties of Selected Dual COX-2 and 5-LOX Inhibitors” (Pharmaceuticals, 2024).
